Literature values as cited in article PMC6156206 (Molecular Imaging, 2018).

What was measured:
[1] = test system: BRAF^V600E-mutant melanoma xenografts; details: oral, 30-100 mg/kg, twice daily, without any adverse effects
[2] = phase 1/1b safety profile analysis

Compound | Antitumor effect in xenografts [1] | Tolerable dose in patients [2] | Substrate for the drug efflux transporter system P-gp/BCRP (P-gp/BCRP)
COc1cc2ncnc(Oc3cccc(NC(=O)Nc4cc(C(C)(C)C(F)(F)F)on4)c3)c2cc1OC.Cl [CEP-32496, 1-(3-(6,7-dimethoxyquinazolin-4-yloxy)phenyl)-3-(5-(1,1,1-trifluoro-2-methylpropan-2-yl)isoxazol-3-yl)urea hydrochloride] | tumor stasis and regression | up to 350 mg/d | 
CNC(=O)c1cc(Oc2ccc(NC(=O)Nc3ccc(Cl)c(C(F)(F)F)c3)cc2)ccn1 [sorafenib] |  |  | substrate for the drug efflux transporter system P-gp/BCRP
